Experimental data published in patent US20260014358A1, “THERMALLY REGULATED TRANSDERMAL DRUG DELIVERY SYSTEM” (Morningside Venture Investments Limited, priority 2018, published 2026).
Where two headings read alike, the source gives them in different places.

Conditions: for Nicotine flow across the skin: passive matrix-type patch containing 21 mg nicotine on human cadaver skin, average of test patches (n=4)
Experimental: Experiments were carried out by applying passive matrix-type nicotine patches containing 21 mg of nicotine to human cadaver skin and then periodically heating and cooling the patches over a period of 20 hours. Controls with no heating and cooling were tested concurrently. The test patches were subject to 3 cycles of heating and cooling while the control patches were not. Patches were heated for 2 hours, cooled for 5 hours, heated for 2 hours, cooled for 4 hours, heated for 2 hours, and cooled. Nicotine delivery across the skin was measured and averaged for control patches (n=2) and test patches (n=4).

CN1CCCC1c1cccnc1 (stereo not shown) [Nicotine]
Nicotine flow across the skin (first 2-hour heating period): around 4.9 mg/hr | Change of nicotine flow across the skin when heat was applied (heated and cooled test patches, 3 cycles over 20 hours, human cadaver skin): increased | Nicotine flow across the skin (second 2-hour heating period (after 5 hours cooling)): around 2.5 mg/hr | Nicotine flow across the skin (third 2-hour heating period (after 4 hours cooling)): around 1.8 mg/hr
